# Entries after “also recorded” stand apart in the source; their conditions may differ. Counter-ions that a name gives are not always drawn.
# What was measured:
# [1] = Water solubility test (Comparative Example 4); format: physicochemical; settings: 25° C.
# Procedure: The ABT-199 dihydrochloride Form 1 prepared by the invention and the known ABT-199 hydrochloride Form II prepared according to the Preparation Example 2 were tested for water solubility. In specific, 10 mg sample was placed in a 20 mL glass bottle, and added with 10 mL deionized water at 25° C. to form a suspension, which was stirred for 24 hours at 25° C., filtered, and detected by HPLC, and the solubility of the sample in water was calculated.
# [2] = Storage stability at room temperature and 10%-90% RH for 4 months; format: physicochemical; settings: room temperature
# [3] = Crystalline stability at 130° C. for 1 day by XRPD (Comparative Example 2); format: physicochemical; settings: for crystalline form after being stored at 130° C. for 1 day: XRPD
# Procedure: The ABT-199 monohydrochloride Form B prepared by the present invention was compared with the known ABT-199 hydrochloride Form II prepared according to the Preparation Example 2. In specific, 30 mg samples were placed at 130° C. for 1 day, and XRPD was carried out to investigate the crystalline stability.
# [4] = Water solubility test (Comparative Example 1); format: physicochemical
# Procedure: The ABT-199 monohydrochloride Form A prepared in the present invention was compared with the known ABT-199 hydrochloride Form II prepared according to the Preparation Example 2 in a water solubility test. In specific, 10 mg sample was placed in a 50 mL glass bottle, and added with 10 mL deionized water dropwisely at 25° C. to form a suspension. The suspension was treated with ultrasonics until the suspension was stirred for 24 hours and the sample was almost dissolved, the resultant solution was filtered and subject to HPLC detection, and the sample solubility in water was calculated.
# [5] = Slurry competition experiment for crystalline form stability (Comparative Example 3); format: physicochemical; settings: for crystalline form in slurry competition experiment: water-saturated ethyl acetate, 3 days, room temperature or 40° C.
# Procedure: The ABT-199 monohydrochloride Form C prepared by the invention and the known ABT-199 hydrochloride Form II prepared by Preparation Example 2 were used for the competition experiment to test the crystalline form stability. In specific, 20 mg ABT-199 Form II and 20 mg ABT-199 monohydrochloride Form C samples were added to the same water-saturated ethyl acetate to form slurries, which were stirred for 3 days at room temperature or at 40° C., then the samples were analyzed by XRPD to investigate their crystalline form stability.
# [6] = cited from earlier work
# [7] = slurry of Form II and Form C in water-saturated ethyl acetate, XRPD
smiles,measurement,setting,value
CC1(C)CCC(CN2CCN(c3ccc(C(=O)NS(=O)(=O)c4ccc(NCC5CCOCC5)c([N+](=O)[O-])c4)c(Oc4cnc5[nH]ccc5c4)c3)CC2)=C(c2ccc(Cl)cc2)C1 [ABT-199 dihydrochloride Form 1],solubility at 24 h,"[1]; thermodynamic from solid, deionized water, stirred 24 hours, HPLC",~50 µg/mL
same,solubility in water compared with known ABT-199 hydrochloride Form II,[1],higher solubility
same,solubility in water compared with known ABT-199 hydrochloride Form II,[1]; listed as Form 1,higher
same,"appearance, XRPD pattern and melting point after storage",[2]; listed as Form 1,remains unchanged
"CC1(C)CCC(CN2CCN(c3ccc(C(=O)NS(=O)(=O)c4ccc(NCC5CCOCC5)c([N+](=O)[O-])c4)c(Oc4cnc5[nH]ccc5c4)c3)CC2)=C(c2ccc(Cl)cc2)C1.Cl [ABT-199 hydrochloride Form II, reference compound]",crystalline form after being stored at 130° C. for 1 day,"[3]; 130° C., 1 day, listed as ABT-199 monohydrochloride Form II",changes; also recorded: Phase transition occurred
same,stability at high temperature (in words),[3]; high temperature,poor stability at high temperature
same,solubility,"[1]; deionized water, stirred 24 hours, HPLC",About 20 μg/mL
same,solubility,"[4]; deionized water, 25° C., 24 hours, HPLC",About 20 μg/mL
same,solubility in water (in words),[4]; water,low solubility in water
same,crystalline form after stirring at 40° C. for 3 days,[5]; [7],Convered to Form C
same,crystalline form in slurry competition experiment,[5],changed to Form C
same,crystalline form in slurry competition experiment,[5]; listed as ABT-199 monohydrochloride Form II,converted to Form C
CC1(C)CCC(CN2CCN(c3ccc(C(=O)NS(=O)(=O)c4ccc(NCC5CCOCC5)c([N+](=O)[O-])c4)c(Oc4cnc5[nH]ccc5c4)c3)CC2)=C(c2ccc(Cl)cc2)C1 [ABT-199 hydrochloride Form I],stability when exposed to air,[6],easily converted to ABT-199 hydrochloride Form II
CC1(C)CCC(CN2CCN(c3ccc(C(=O)NS(=O)(=O)c4ccc(NCC5CCOCC5)c([N+](=O)[O-])c4)c(Oc4cnc5[nH]ccc5c4)c3)CC2)=C(c2ccc(Cl)cc2)C1 [ABT-199 monohydrochloride Form A],solubility at 24 h,"[4]; thermodynamic from solid, deionized water, 25° C., 24 hours, HPLC",~40 µg/mL
same,solubility in water compared with known ABT-199 hydrochloride Form II,"[4]; water, 25° C.",higher solubility
same,"appearance, XRPD pattern and melting point after storage",[2]; listed as Form A,unchanged
CC1(C)CCC(CN2CCN(c3ccc(C(=O)NS(=O)(=O)c4ccc(NCC5CCOCC5)c([N+](=O)[O-])c4)c(Oc4cnc5[nH]ccc5c4)c3)CC2)=C(c2ccc(Cl)cc2)C1 [ABT-199 monohydrochloride Form B],high-temperature stability compared with known ABT-199 hydrochloride Form II,"[3]; 130° C., 1 day",better high-temperature-stability
same,crystalline form after being stored at 130° C. for 1 day,"[3]; 130° C., 1 day",Form B
same,crystalline form after being stored at 130° C. for 1 day,"[3]; 130° C., 1 day, listed as Form B",does not change
same,"appearance, XRPD pattern and melting point after storage",[2]; listed as Form B,remains unchanged
CC1(C)CCC(CN2CCN(c3ccc(C(=O)NS(=O)(=O)c4ccc(NCC5CCOCC5)c([N+](=O)[O-])c4)c(Oc4cnc5[nH]ccc5c4)c3)CC2)=C(c2ccc(Cl)cc2)C1 [ABT-199 monohydrochloride Form C],crystalline form after stirring at 40° C. for 3 days,[5]; [7],Form C
same,crystalline form after stirring at room temperature for 3 days,"[5]; slurry of Form II and Form C in water-saturated ethyl acetate, room temperature, XRPD",Form C
same,crystalline form in slurry competition experiment,[5],remains unchanged
same,"appearance, XRPD pattern and melting point after storage",[2]; listed as Form C,remains unchanged
